Laboratory results reported in US11325936B2, “Sialidase inhibitors and preparation thereof” (The Regents of the University of California, priority 2017, dated 2022).

Legend:
hNEU2 = hNEU2 (Homo sapiens, UniProt Q9Y3R4); test: Sialidase inhibition assay (Example 7); assay type: biochemical; details: 1 mM of each inhibitor; substrate Neu5Acα2-3GalβpNP 0.3 mM; pH 5.0; read-out: Percentage inhibition (%) against hNEU2
SpNanB [1] = molecular target: T1, SpNanB (Streptococcus pneumoniae serotype 4, UniProt Q54727, E68D/K536E/K577E/N393D/S59P); test: Sialidase inhibition assay (Example 7); assay type: biochemical; details: for inhibition at 1000 µM: pH 6, read-out: Percentage inhibition (%) against SpNanB; for Percentage inhibition (%) against SpNanB: 1 mM of each inhibitor, substrate Neu5Acα2-3GalβpNP 0.3 mM, pH 6.0
SpNanC [2] = molecular target: T2, SpNanC (Streptococcus pneumoniae, UniProt A0A0H2UQE4); test: Sialidase inhibition assay (Example 7); details: for inhibition at 1000 µM: pH 6.5, read-out: Percentage inhibition (%) against SpNanC
SpNanB [3] = molecular target: T1, SpNanB; test: Hydrolysis of 2,7-anhydro-sialic acids by SpNanB; details: SpNanB (1.0 mg/mL); 37° C. for 24 h
SpNanA = SpNanA (Streptococcus pneumoniae, UniProt P62575); test: Sialidase inhibition assay (Example 7); assay type: biochemical; details: for inhibition at 1000 µM: pH 6, read-out: Percentage inhibition (%) against SpNanA; for Percentage inhibition (%) against SpNanA: 1 mM of each inhibitor, substrate Neu5Acα2-3GalβpNP 0.3 mM, pH 6.0
VcSialidase = VcSialidase (Vibrio cholerae serotype O1, UniProt P0C6E9); test: Sialidase inhibition assay (Example 7); assay type: biochemical; details: for inhibition at 1000 µM: pH 5.5, read-out: Percentage inhibition (%) against VcSialidase
BiNanH2 [4] = molecular target: T3, BiNanH2 (Bifidobacterium longum subsp. infantis, UniProt A0ACD7UU12); test: Sialidase inhibition assay (Example 7); assay type: biochemical; details: pH 5, read-out: Percentage inhibition (%) against BiNanH2
CpNanI = assay type: biochemical, Clostridium perfringens; details: 1 mM of each inhibitor; substrate Neu5Acα2-3GalβpNP 0.3 mM; pH 5.0
PmST1 [5] = molecular target: T4, PmST1 (Pasteurella multocida, UniProt Q15KI8); test: Sialidase inhibition assay (Example 7); assay type: biochemical; details: 1 mM of each inhibitor; substrate Neu5Acα2-3GalβpNP 0.3 mM; CMP 0.4 mM; pH 5.5; read-out: Percentage inhibition (%) against PmST1
AuSialidase = molecular target: T5, AuSialidase (Paenarthrobacter ureafaciens, UniProt Q5W7Q2); test: Sialidase inhibition assay (Example 7); assay type: biochemical, Arthrobacter ureafaciens; details: for inhibition at 1000 µM: read-out: Percentage inhibition (%) against AuSialidase
T5 sequence (Q5W7Q2 39-990): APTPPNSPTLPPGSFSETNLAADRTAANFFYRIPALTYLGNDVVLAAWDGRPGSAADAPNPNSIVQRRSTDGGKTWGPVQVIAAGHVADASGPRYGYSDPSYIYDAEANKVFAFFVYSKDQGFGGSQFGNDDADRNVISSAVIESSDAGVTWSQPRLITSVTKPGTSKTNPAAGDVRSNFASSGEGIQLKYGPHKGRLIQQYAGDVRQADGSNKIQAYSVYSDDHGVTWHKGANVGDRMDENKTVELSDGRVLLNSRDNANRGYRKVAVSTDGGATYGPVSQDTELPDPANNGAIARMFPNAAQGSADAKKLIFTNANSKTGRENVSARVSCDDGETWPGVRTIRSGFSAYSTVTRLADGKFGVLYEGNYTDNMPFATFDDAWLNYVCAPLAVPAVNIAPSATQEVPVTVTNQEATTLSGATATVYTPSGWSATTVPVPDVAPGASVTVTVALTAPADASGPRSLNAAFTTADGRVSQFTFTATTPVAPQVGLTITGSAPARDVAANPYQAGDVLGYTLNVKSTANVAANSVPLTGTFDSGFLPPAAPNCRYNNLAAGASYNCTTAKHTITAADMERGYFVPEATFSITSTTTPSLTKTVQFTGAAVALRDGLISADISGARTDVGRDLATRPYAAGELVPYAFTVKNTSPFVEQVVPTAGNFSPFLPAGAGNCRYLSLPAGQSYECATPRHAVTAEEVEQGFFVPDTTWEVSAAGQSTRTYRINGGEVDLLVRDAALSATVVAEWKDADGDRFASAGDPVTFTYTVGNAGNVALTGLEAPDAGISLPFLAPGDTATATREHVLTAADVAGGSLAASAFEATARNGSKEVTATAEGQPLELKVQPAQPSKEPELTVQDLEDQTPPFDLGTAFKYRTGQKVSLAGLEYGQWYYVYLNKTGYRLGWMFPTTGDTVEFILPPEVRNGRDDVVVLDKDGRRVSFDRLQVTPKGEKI

SpNanC [6] = molecular target: T2, SpNanC; details: Tris-HCl pH 7.0, 10 min at 37° C.
SpNanB [7] = molecular target: T1, SpNanB; test: Substrate specificity of SpNanB; details: pNP-tagged α2-3-linked sialosides
SpNanC [8] = test: Substrate specificity assay of SpNanC; details: sialoside substrate 0.3 mM; SpNanC (2 μg); Tris-HCl pH 7.0; 30 min, 37° C.
SpNanB [9] = molecular target: T1, SpNanB; test: Sialidase inhibition assay (Example 4); assay type: biochemical; details: pH 6, read-out: Percentage inhibition (%) against SpNanB
CpNanH = CpNanH (Clostridium perfringens, UniProt P10481); test: biochemical; details: pH 5.0; read-out: Percentage inhibition (%) against CpNanH
PmST1 [10] = molecular target: T4, PmST1; test: Sialidase inhibition assay (Example 4); assay type: biochemical; details: 0.1 mM of each inhibitor; substrate Neu5Acα2-3GalβpNP 0.3 mM; pH 5.5; read-out: Percentage inhibition (%) against PmST1
Method: The assay conditions varied for different sialidases as described below: SpNanA (0.0015 μg), NaOAc buffer (100 mM, pH 6.0); SpNanB (0.003 μg), NaOAc buffer (100 mM, pH 6.0); SpNanC (0.02 μg), MES buffer (100 mM, pH 6.5); AuSialidase (1.0 mU), NaOAc buffer (100 mM, pH 5.5); CpNanI (2.0 mU), MES buffer (100 mM, pH 5.0); CpNanH (0.5 mU), MES buffer (100 mM, pH 5.0); VcSialidase (1.5 mU), NaCl (150 mM), CaCl2) (10 mM), NaOAc buffer (100 mM, pH 5.5); PmST1 (34.4 μg), NaOAc buffer (100 mM, pH 5.5); BiNanH2, NaOAc buffer (100 mM, pH 5.0); hNEU2 (22.0 μg), MES buffer (100 mM, pH 5.0). The reactions were incubated for 30 min at 37° C., and were stopped by adding CAPS buffer (N-cyclohexyl-3-aminopropane sulfonic acid, 40 μL, 0.5 M, pH 10.5). The amount of the para-nitrophenolate formed was determined by measuring the A405 nm Of the reaction mixtures using a microplate reader.
The percentage inhibitions were determined using a concentration of 0.1 mM of each inhibitor, with reactions without inhibitors as controls. […] The values of IC50 were calculated by the software Grafit 5.0.

BiNanH2 [11] = molecular target: T3, BiNanH2; test: Sialidase inhibition assay (Example 4); assay type: biochemical; details: pH 5, read-out: Percentage inhibition (%) against BiNanH2, 0.1 mM of each inhibitor, substrate Neu5Acα2-3GalβpNP 0.3 mM
SpNanC [12] = molecular target: T2, SpNanC; test: Sialidase inhibition assay (Example 4); assay type: biochemical; details: pH 6.5, read-out: Percentage inhibition (%) against SpNanC
SpNanC [13] = details: previously reported recombinant SpNanC; cited from earlier work
[14] = 1 mM of each inhibitor, substrate Neu5Acα2-3GalβpNP 0.3 mM, pH 5.5

T3 sequence (A0ACD7UU12 entry or part of it): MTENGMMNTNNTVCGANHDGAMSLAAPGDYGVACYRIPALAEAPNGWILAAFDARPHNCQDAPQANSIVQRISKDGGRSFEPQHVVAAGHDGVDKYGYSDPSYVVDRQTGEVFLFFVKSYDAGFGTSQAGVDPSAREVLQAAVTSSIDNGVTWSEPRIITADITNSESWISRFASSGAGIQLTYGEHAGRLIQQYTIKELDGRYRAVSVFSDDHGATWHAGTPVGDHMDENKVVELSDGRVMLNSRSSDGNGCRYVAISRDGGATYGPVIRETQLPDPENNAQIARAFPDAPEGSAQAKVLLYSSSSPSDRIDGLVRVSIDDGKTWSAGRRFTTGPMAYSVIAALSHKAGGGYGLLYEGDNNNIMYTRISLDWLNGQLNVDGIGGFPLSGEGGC
T1 sequence (Q54727 30-697 S59P/E68D/N393D/K536E/K577E): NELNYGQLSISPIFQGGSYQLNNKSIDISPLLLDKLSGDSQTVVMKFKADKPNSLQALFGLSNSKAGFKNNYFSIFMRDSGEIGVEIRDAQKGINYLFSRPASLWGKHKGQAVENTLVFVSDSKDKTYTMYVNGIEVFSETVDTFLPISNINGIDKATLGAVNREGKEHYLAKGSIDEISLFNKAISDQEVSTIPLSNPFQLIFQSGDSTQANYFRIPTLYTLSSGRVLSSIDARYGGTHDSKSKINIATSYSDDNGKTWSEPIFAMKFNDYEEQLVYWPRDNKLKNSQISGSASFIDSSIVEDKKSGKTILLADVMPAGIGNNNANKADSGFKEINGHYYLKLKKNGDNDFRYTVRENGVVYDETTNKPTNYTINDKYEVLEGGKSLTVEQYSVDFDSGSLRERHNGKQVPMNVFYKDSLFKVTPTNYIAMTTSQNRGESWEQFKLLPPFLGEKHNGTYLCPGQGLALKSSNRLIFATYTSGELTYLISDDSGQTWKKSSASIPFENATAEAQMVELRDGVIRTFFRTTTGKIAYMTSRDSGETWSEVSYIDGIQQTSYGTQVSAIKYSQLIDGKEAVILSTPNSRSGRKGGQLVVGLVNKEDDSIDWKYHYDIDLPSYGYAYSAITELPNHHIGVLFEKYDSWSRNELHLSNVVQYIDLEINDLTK
VcSialidase, sequence (P0C6E9 25-781): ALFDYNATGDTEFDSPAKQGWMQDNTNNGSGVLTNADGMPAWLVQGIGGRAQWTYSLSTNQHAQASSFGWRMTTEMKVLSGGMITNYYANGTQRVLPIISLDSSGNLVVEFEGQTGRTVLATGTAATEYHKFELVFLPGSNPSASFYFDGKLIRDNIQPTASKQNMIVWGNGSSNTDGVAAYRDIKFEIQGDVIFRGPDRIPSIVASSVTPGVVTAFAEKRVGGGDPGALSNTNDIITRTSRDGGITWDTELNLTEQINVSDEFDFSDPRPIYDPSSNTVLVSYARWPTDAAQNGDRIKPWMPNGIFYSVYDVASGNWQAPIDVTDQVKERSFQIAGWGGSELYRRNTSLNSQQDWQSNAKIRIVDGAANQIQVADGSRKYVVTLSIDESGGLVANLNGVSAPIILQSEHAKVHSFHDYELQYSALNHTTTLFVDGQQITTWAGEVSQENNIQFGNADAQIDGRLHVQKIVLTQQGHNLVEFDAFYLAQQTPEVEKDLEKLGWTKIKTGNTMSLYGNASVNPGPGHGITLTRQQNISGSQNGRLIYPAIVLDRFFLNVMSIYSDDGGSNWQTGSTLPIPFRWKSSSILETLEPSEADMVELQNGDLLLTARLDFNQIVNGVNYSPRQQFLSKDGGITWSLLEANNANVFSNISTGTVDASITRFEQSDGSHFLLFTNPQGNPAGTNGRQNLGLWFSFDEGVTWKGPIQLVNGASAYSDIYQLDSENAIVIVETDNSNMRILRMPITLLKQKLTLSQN
T4 sequence (Q15KI8 entry or part of it): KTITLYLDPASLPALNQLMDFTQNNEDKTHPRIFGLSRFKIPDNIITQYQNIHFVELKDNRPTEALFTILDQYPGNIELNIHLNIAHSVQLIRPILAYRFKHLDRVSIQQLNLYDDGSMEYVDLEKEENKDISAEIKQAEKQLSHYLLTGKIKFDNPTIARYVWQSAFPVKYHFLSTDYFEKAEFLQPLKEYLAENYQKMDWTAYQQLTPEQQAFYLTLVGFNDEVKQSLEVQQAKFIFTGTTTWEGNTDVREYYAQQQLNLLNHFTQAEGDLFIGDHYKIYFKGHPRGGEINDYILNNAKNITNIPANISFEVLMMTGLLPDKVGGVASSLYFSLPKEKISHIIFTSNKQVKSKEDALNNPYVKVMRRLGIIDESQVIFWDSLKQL
SpNanA, sequence (P62575 54-1006): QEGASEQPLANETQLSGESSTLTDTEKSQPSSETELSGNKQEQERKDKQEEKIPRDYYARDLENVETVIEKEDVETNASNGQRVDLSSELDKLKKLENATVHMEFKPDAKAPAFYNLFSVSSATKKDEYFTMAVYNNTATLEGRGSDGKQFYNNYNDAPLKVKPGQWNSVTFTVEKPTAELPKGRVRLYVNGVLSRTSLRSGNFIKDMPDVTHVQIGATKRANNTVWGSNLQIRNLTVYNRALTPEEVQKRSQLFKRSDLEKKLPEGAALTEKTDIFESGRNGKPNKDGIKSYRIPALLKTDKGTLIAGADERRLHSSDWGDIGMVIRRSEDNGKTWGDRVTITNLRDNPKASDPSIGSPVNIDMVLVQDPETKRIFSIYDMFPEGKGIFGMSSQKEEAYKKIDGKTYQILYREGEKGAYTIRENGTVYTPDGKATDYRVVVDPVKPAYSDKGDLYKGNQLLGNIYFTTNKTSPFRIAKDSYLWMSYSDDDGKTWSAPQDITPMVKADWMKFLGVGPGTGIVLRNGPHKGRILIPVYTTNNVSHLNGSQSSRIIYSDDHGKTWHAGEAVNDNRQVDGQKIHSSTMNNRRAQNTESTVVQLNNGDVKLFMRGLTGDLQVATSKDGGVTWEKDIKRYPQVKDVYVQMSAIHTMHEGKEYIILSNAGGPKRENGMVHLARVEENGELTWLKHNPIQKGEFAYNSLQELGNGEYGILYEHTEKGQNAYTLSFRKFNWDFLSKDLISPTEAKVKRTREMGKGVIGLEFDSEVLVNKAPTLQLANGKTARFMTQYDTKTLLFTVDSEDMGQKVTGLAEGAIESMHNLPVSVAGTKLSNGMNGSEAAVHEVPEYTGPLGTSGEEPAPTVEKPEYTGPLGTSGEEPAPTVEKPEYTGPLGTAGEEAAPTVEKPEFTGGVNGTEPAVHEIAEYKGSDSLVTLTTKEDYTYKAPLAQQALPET
T2 sequence (A0A0H2UQE4 entry or part of it): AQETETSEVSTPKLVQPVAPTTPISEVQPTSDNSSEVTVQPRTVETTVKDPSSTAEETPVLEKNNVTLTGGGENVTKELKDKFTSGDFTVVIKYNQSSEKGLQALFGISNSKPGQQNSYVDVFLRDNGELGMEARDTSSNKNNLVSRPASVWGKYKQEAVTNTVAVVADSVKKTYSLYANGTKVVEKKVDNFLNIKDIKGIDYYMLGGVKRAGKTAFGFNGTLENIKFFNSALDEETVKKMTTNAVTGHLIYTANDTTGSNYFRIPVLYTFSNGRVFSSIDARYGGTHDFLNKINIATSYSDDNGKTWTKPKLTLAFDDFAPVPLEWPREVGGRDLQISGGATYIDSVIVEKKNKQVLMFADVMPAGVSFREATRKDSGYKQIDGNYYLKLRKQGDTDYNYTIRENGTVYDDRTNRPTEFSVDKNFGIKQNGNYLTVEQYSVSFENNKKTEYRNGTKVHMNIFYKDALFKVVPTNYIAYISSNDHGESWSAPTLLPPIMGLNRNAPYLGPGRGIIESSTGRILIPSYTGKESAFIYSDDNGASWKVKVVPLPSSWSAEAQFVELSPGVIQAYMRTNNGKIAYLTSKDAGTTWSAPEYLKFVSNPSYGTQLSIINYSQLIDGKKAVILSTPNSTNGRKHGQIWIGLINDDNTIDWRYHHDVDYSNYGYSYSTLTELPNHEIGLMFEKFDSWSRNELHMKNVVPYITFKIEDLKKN
hNEU2, sequence (Q9Y3R4 whole entry): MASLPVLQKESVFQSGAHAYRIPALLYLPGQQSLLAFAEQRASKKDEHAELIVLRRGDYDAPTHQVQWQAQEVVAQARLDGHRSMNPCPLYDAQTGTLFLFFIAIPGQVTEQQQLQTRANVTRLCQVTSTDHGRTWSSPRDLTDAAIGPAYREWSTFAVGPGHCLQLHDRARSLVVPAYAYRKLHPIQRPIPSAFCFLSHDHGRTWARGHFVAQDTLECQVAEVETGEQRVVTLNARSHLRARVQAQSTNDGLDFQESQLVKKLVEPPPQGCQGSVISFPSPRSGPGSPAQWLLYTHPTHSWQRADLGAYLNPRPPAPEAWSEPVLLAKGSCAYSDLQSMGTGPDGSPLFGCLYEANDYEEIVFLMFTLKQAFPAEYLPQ
CpNanH, sequence (P10481 whole entry, looked up): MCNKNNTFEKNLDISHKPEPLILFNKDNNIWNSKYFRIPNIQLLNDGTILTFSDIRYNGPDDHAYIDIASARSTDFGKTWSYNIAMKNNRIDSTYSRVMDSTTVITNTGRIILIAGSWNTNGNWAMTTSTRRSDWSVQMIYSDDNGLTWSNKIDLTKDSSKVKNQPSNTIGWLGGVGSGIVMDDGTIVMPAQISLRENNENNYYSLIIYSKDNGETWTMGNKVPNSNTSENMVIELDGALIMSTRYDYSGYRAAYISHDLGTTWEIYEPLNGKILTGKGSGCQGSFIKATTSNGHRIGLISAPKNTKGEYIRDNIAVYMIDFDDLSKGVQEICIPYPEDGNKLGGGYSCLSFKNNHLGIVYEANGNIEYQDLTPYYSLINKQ

## CC(=O)N[C@H]1[C@H]2O[C@@](C(=O)O)(C[C@@H]1O)O[C@@H]2[C@H](O)CO [2-1, 5-Acetamido-2,7-anhydro-3,5-dideoxy-α-D-glycero-D-galacto-non-2-ulopyranosonic acid]
hNEU2
  inhibition at 1000 µM: 4.6 ± 1.1%
SpNanB [1]
  inhibition at 1000 µM: 30 ± 1.7%
SpNanC [2]
  inhibition at 1000 µM: 3 ± 1.9%
SpNanB [3]
  Conversion to Neu5Ac by SpNanB, estimated yield based on TLC: 80%
SpNanA
  inhibition at 1000 µM: 36.4 ± 0.1%
VcSialidase
  inhibition at 1000 µM: 22.7 ± 1.2%
BiNanH2 [4]
  inhibition at 1000 µM: 6.6 ± 1.8%
CpNanI
  Percentage inhibition (%) against CpNanI: 26.7 ± 3.7%
PmST1 [5]
  inhibition at 1000 µM: 10.2 ± 2.8%
AuSialidase; [14]
  inhibition at 1000 µM: 49.4 ± 1.3%

## O=C(N[C@H]1[C@H]2O[C@@](C(=O)O)(C[C@@H]1O)O[C@@H]2[C@H](O)CO)C(F)(F)F [2-2, 2,7-Anhydro-3,5-dideoxy-5-trifluoroacetamido-α-D-glycero-D-galacto-non-2-ulopyranosonic acid]
hNEU2
  inhibition at 1000 µM: 2.5 ± 2.1%
SpNanB [1]
  IC50: 250 to 500 µM
  Percentage inhibition (%) against SpNanB: weak inhibition
  inhibition at 1000 µM: 68.2 ± 2.6%
SpNanC [2]
  inhibition at 1000 µM: 4.4 ± 2%
SpNanA
  Percentage inhibition (%) against SpNanA: moderate inhibitory activity
  inhibition at 1000 µM: 83.8 ± 0.3%
VcSialidase
  IC50: 500 to 1000 µM
  inhibition at 1000 µM: 62.1 ± 0.6%
VcSialidase; [14]
  Percentage inhibition (%) against VcSialidase: weak inhibition
BiNanH2 [4]
  inhibition at 1000 µM: 3.8 ± 2.6%
CpNanI
  Percentage inhibition (%) against CpNanI: 44.1 ± 1.0%
PmST1 [5]
  inhibition at 1000 µM: 11 ± 2.7%
AuSialidase; [14]
  Percentage inhibition (%) against AuSialidase: moderate inhibitory activity
  inhibition at 1000 µM: 85.1 ± 0.3%
AuSialidase; read-out: IC50 against AuSialidase
  IC50: 225 ± 34 µM

## N[C@H]1[C@H]2O[C@@](C(=O)O)(C[C@@H]1O)O[C@@H]2[C@H](O)CO [2-3, 5-Amino-2,7-anhydro-3,5-dideoxy-α-D-glycero-D-galacto-non-2-ulopyranosonic acid]
hNEU2
  inhibition at 1000 µM: 1.4 ± 2.4%
SpNanB [1]
  inhibition at 1000 µM: 11.7 ± 2.6%
SpNanC [2]
  inhibition at 1000 µM: 14.9 ± 3%
SpNanA
  inhibition at 1000 µM: 19.3 ± 4.2%
VcSialidase
  inhibition at 1000 µM: 1.3 ± 2%
BiNanH2 [4]
  inhibition at 1000 µM: 3.2 ± 3.2%
CpNanI
  Percentage inhibition (%) against CpNanI: 10.1 ± 5.7%
PmST1 [5]
  inhibition at 1000 µM: 13.8 ± 3.3%
AuSialidase; [14]
  inhibition at 1000 µM: 1.3 ± 2.2%

## O=C(O)[C@@]12C[C@@H](O)[C@@H](NC3CCCCC3)C(O1)[C@@H]([C@H](O)CO)O2 [2-4]
hNEU2
  inhibition at 1000 µM: 3.6 ± 0.1%
SpNanB [1]
  IC50: 180 ± 23 µM
  Percentage inhibition (%) against SpNanB: effective inhibitory activity
  inhibition at 1000 µM: 86.6 ± 0.3%
SpNanC [2]; 1 mM of each inhibitor, substrate Neu5Acα2-3GalβpNP 0.3 mM, pH 6.5
  Percentage inhibition (%) against SpNanC: showed inhibition
SpNanC [2]
  inhibition at 1000 µM: 94.2 ± 0.1%
SpNanA
  IC50: 500 to 1000 µM
  Percentage inhibition (%) against SpNanA: weak inhibition
  inhibition at 1000 µM: 61.2 ± 0.6%
VcSialidase
  IC50: > 1000 µM
  inhibition at 1000 µM: 1.2 ± 0.7%
BiNanH2 [4]
  inhibition at 1000 µM: 1.2 ± 0.9%
CpNanI
  Percentage inhibition (%) against CpNanI: 13.6 ± 0.1%
PmST1 [5]
  inhibition at 1000 µM: 12.3 ± 1.9%
AuSialidase; [14]
  inhibition at 1000 µM: 16.8 ± 2.4%

## CC(=O)N[C@H]1[C@H]([C@H](O)[C@H](O)CO)OC(O[C@H]2[C@@H](O)[C@@H](CO)O[C@@H](Oc3ccc([N+](=O)[O-])cc3)[C@@H]2O)(C(=O)O)C[C@@H]1O (stereo partly drawn) [Neu5Acα2-3GalβpNP]
SpNanC [6]
  Km: 2700 ± 500 µM
  kcat: 406.8 ± 39.0 s⁻¹
SpNanB [7]
  Recognition by SpNanB (substrate specificity): + (+ represents >80% conversion)
SpNanC [8]
  Percentage conversion (%) by SpNanC: 85.1 ± 2.4%

## CC(=O)N[C@H]1[C@H]([C@H](O)[C@H](O)CO)OC(C(=O)O)=C[C@@H]1O [compound 6, 5-Acetamido-2,6-anhydro-3,5-dideoxy-D-glycero-D-galacto-non-2-enonic acid, reference compound]
SpNanB [9]
  inhibition at 100 µM: 4%
SpNanB [1]
  inhibition at 1000 µM: 26.1 ± 1%
SpNanC [2]
  inhibition at 1000 µM: 9 ± 3.5%
CpNanH
  inhibition at 100 µM: 2%
SpNanA
  inhibition at 1000 µM: 98.9 ± 1.8%
VcSialidase
  inhibition at 1000 µM: 98.8 ± 0.1%
PmST1 [10]
  inhibition at 100 µM: 2%
BiNanH2 [4]
  inhibition at 1000 µM: 95.3 ± 0.2%
CpNanI
  Percentage inhibition (%) against CpNanI: 93.3 ± 3.8%
PmST1 [5]
  inhibition at 1000 µM: 15.8 ± 0.1%
BiNanH2 [11]
  inhibition at 100 µM: > 50%
SpNanC [12]
  inhibition at 100 µM: 11%
AuSialidase; [14]
  inhibition at 1000 µM: 99.6 ± 0.6%

## CC(=O)N[C@H]1[C@H]([C@H](O)[C@H](O)CO)O[C@@](O[C@H]2[C@@H](O)[C@@H](CO)O[C@@H](O[C@H]3[C@H](O)[C@@H](O)C(O)O[C@@H]3CO)[C@@H]2O)(C(=O)O)C[C@@H]1O (stereo partly drawn) [α2-3-sialyllactose]
SpNanC [13]
  Km: 1080 ± 350 µM
  kcat: 0.313 ± 0.052 s⁻¹
